Reference: publication PMC10351190, “Isolation and identification of active ingredients and biological activity of Dioscorea nipponica Makino” (BMC Complementary Medicine and Therapies, 2023)

Target: T1, α-glucosidase
T1 construct: gene MAL12
Test: pNPG hydrolysis, absorbance […] nm
Format: biochemical
Conditions: pNPG substrate ([…] stock), pH […] °C, […] phosphate

| SMILES | IC50 [µM] |
| --- | --- |
| COc1c(O)cc(C[C@H](O)c2ccccc2)c(C(=O)O)c1O [compound 1, diosniposide E] | > 800 |
| O=C(O)c1c(O)cc(O)cc1C[C@H](O)c1ccccc1 [compound 2, diosniponol C] | > 800 |
| O=C(/C=C/C=C/c1ccc(O)cc1)CCc1ccc(O)cc1 [compound 3, 1,7-bis(4-hydroxyphenyl)hepta-4E,6E-dien-3-one] | 1.6 ± 0.17 |
| COc1cc2c(ccc3cc(O)cc(OC)c32)cc1O [compound 4, 3,5-dimethoxyphenanthrene-2,7-diol] | 31.4 ± 0.18 |
| O=C(O)c1cc(O)c(O)c(O)c1 [compound 5, gallic acid] | > 800 |
| COC(=O)c1cc(O)c(O)c(O)c1 [compound 6, methyl gallate] | > 800 |
| COc1cc(C(=O)O)ccc1O [compound 7, vanillic acid] | > 800 |
| COc1cc2c(ccc3c(-c4c(O)cc(OC)c5c4ccc4cc(O)c(OC)cc45)c(O)cc(OC)c32)cc1O [compound 8, 2,2',7,7'-tetrahydroxy-4,4',6,6'-tetramethoxy-1,1'-biphenanthrenes] | > 800 |
| O=c1cc(-c2ccc(O)cc2)oc2cc(O)cc(O)c12 [compound 9, apigenin] | > 800 |
